Data: publication PMC4584933, “Establishing the pig as a large animal model for vaccine development against human cancer” (Frontiers in Genetics, 2015)

What was measured:
SLA-2*05:02 = assay: Peptide-MHC class I complex stability, scintillation proximity assay (SPA); parameters: species or system pig; settings: biotinylated recombinant SLA heavy chain, 125I-β2m, excess unlabeled β2m, read every 40 min, number only if t1/2 ≥ 0.5 h, '-' = not stably binding
Description: (§1) The stability of the selected 198 peptides in complex with relevant SLA class I molecules and β2m was determined using a scintillation proximity assay (SPA), as previously described (Harndahl et al., [2011]). Briefly, biotinylated recombinant MHC class I heavy chains were attached to a streptavidin-coated scintillation microplate together with iodinated (^125I) β2m and candidate peptide resulting in a scintillation signal, which was consecutively measured every 40 min by a scintillation plate counter. The duration of this signal is directly correlated to the stability of the peptide-MHC class I-β2m complex under dissociating conditions and in the presence of excess unlabeled β2m (Harndahl et al., [2011]). Peptides with a half-life ≥ 0.5 h were selected as stable binders.

SLA-3*04:01 = assay: as above; parameters: species or system pig; settings: biotinylated recombinant SLA heavy chain, 125I-β2m, excess unlabeled β2m, read every 40 min, number only if t1/2 ≥ 0.5 h, '-' = not stably binding
Description: as §1

SLA-2*04:01 = assay: as above; parameters: species or system pig; settings: biotinylated recombinant SLA heavy chain, 125I-β2m, excess unlabeled β2m, read every 40 min, number only if t1/2 ≥ 0.5 h, '-' = not stably binding
Description: as §1

PBMCs = assay: In vitro peptide stimulation of porcine PBMCs, IFN-γ release assay (ELISA); format: cell-based, pig; parameters: key to T cell response: “x” indicates that a response was found to this given peptide at least once; settings: PBMCs of immunized pigs, 2 × 10^5/well, 5 μg/ml peptide, 67.5–70.0 h, IFN-γ ELISA; response = 2-fold increase vs day -2 and at least 25 pg/ml IFN-γ, found at least once; SLA restriction not included

Row | Sequence | Binder (t1/2 ≥ 0.5 h): half-life of peptide-SLA-2*05:02 complex (SLA-2*05:02) | Binder (t1/2 ≥ 0.5 h): half-life of peptide-SLA-3*04:01 complex (SLA-3*04:01) | other results
1 | AIAKNLPELI [IDO3, porcine IDO-derived 9-11mer peptide] | 54 min | – | –
2 | ANRISAFGY [RhoC2, porcine RhoC-derived 9-11mer peptide] | – | - (t1/2 (hours) is listed for each of the stably binding peptides (t1/2 ≥ 0.5 h)) | Binder (t1/2 ≥ 0.5 h): half-life of peptide-SLA-2*04:01 complex (SLA-2*04:01): 156 min; T cell response (PBMCs): x
3 | DIRKVLPRNI [IDO10, porcine IDO-derived 9-11mer peptide] | - (t1/2 (hours) is listed for each of the stably binding peptides (t1/2 ≥ 0.5 h)) | – | –
4 | EELPHPYDAWI [IDO14, porcine IDO-derived 9-11mer peptide] | - (t1/2 (hours) is listed for each of the stably binding peptides (t1/2 ≥ 0.5 h)) | – | –
5 | ELAKMKQEP [RhoC15, porcine RhoC-derived 9-11mer peptide] | - (t1/2 (hours) is listed for each of the stably binding peptides (t1/2 ≥ 0.5 h)) | – | –
6 | ELPHPYDAWI [IDO18, porcine IDO-derived 9-11mer peptide] | 348 min | – | –
7 | ENIPEKWTP [RhoC17, porcine RhoC-derived 9-11mer peptide] | 66 min | – | –
8 | ENRGTGGTNVI [IDO19, porcine IDO-derived 9-11mer peptide] | - (t1/2 (hours) is listed for each of the stably binding peptides (t1/2 ≥ 0.5 h)) | – | –
9 | FLVSLLVEI [IDO25, porcine IDO-derived 9-11mer peptide] | - (t1/2 (hours) is listed for each of the stably binding peptides (t1/2 ≥ 0.5 h)) | – | –
10 | HKALEVFHQI [IDO36, porcine IDO-derived 9-11mer peptide] | - (t1/2 (hours) is listed for each of the stably binding peptides (t1/2 ≥ 0.5 h)) | – | –
11 | HLQIVTKYI [IDO38, porcine IDO-derived 9-11mer peptide] | 30 min | – | –
12 | HLQIVTKYIVI [IDO39, porcine IDO-derived 9-11mer peptide] | 36 min | – | –
13 | IAIAKNLPELI [IDO44, porcine IDO-derived 9-11mer peptide] | - (t1/2 (hours) is listed for each of the stably binding peptides (t1/2 ≥ 0.5 h)) | – | –
14 | KALEVFHQI [IDO45, porcine IDO-derived 9-11mer peptide] | - (t1/2 (hours) is listed for each of the stably binding peptides (t1/2 ≥ 0.5 h)) | – | –
15 | KHFCPNVPIIL [RhoC30, porcine RhoC-derived 9-11mer peptide] | – | - (t1/2 (hours) is listed for each of the stably binding peptides (t1/2 ≥ 0.5 h)) | –
16 | KLFFNVLRI [IDO52, porcine IDO-derived 9-11mer peptide] | – | - (t1/2 (hours) is listed for each of the stably binding peptides (t1/2 ≥ 0.5 h)) | –
17 | KLFFNVLRIYL [IDO54, porcine IDO-derived 9-11mer peptide] | – | - (t1/2 (hours) is listed for each of the stably binding peptides (t1/2 ≥ 0.5 h)) | –
18 | KMQRLAHLVL [IDO57, porcine IDO-derived 9-11mer peptide] | – | - (t1/2 (hours) is listed for each of the stably binding peptides (t1/2 ≥ 0.5 h)) | –
19 | KNKRRRGCPI [RhoC31, porcine RhoC-derived 9-11mer peptide] | – | 42 min | T cell response (PBMCs): x
20 | KNKRRRGCPIL [RhoC32, porcine RhoC-derived 9-11mer peptide] | – | - (t1/2 (hours) is listed for each of the stably binding peptides (t1/2 ≥ 0.5 h)) | –
21 | KNMDILFSF [IDO58, porcine IDO-derived 9-11mer peptide] | – | - (t1/2 (hours) is listed for each of the stably binding peptides (t1/2 ≥ 0.5 h)) | Binder (t1/2 ≥ 0.5 h): half-life of peptide-SLA-2*04:01 complex (SLA-2*04:01): 480 min; T cell response (PBMCs): x

Row | Sequence | Binder (t1/2 ≥ 0.5 h): half-life of peptide-SLA-2*05:02 complex (SLA-2*05:02) | Binder (t1/2 ≥ 0.5 h): half-life of peptide-SLA-3*04:01 complex (SLA-3*04:01) | other results
22 | KNMDILFSFPG [IDO59, porcine IDO-derived 9-11mer peptide] | – | - (t1/2 (hours) is listed for each of the stably binding peptides (t1/2 ≥ 0.5 h)) | –
23 | KRRRGCPIL [RhoC33, porcine RhoC-derived 9-11mer peptide] | – | - (t1/2 (hours) is listed for each of the stably binding peptides (t1/2 ≥ 0.5 h)) | –
24 | KTKEGVREVF [RhoC34, porcine RhoC-derived 9-11mer peptide] | – | - (t1/2 (hours) is listed for each of the stably binding peptides (t1/2 ≥ 0.5 h)) | –
25 | KTVRGTTVRSL [IDO60, porcine IDO-derived 9-11mer peptide] | – | - (t1/2 (hours) is listed for each of the stably binding peptides (t1/2 ≥ 0.5 h)) | –
26 | MQRLAHLVL [IDO78, porcine IDO-derived 9-11mer peptide] | – | - (t1/2 (hours) is listed for each of the stably binding peptides (t1/2 ≥ 0.5 h)) | –
27 | MTYKNMDILFS [IDO82, porcine IDO-derived 9-11mer peptide] | – | - (t1/2 (hours) is listed for each of the stably binding peptides (t1/2 ≥ 0.5 h)) | –
28 | NKRRRGCPI [RhoC41, porcine RhoC-derived 9-11mer peptide] | – | - (t1/2 (hours) is listed for each of the stably binding peptides (t1/2 ≥ 0.5 h)) | –
29 | QEMRTYMPP [IDO101, porcine IDO-derived 9-11mer peptide] | – | - (t1/2 (hours) is listed for each of the stably binding peptides (t1/2 ≥ 0.5 h)) | –
30 | QRLAHLVLGY [IDO102, porcine IDO-derived 9-11mer peptide] | – | - (t1/2 (hours) is listed for each of the stably binding peptides (t1/2 ≥ 0.5 h)) | Binder (t1/2 ≥ 0.5 h): half-life of peptide-SLA-2*04:01 complex (SLA-2*04:01): - (t1/2 (hours) is listed for each of the stably binding peptides (t1/2 ≥ 0.5 h))
31 | RKNKRRRGCPI [RhoC44, porcine RhoC-derived 9-11mer peptide] | – | - (t1/2 (hours) is listed for each of the stably binding peptides (t1/2 ≥ 0.5 h)) | –
32 | RLRPLSYPD [RhoC45, porcine RhoC-derived 9-11mer peptide] | – | - (t1/2 (hours) is listed for each of the stably binding peptides (t1/2 ≥ 0.5 h)) | –
33 | RNFLHSLES [IDO105, porcine IDO-derived 9-11mer peptide] | – | 882 min | T cell response (PBMCs): x
34 | RNFLHSLESG [IDO106, porcine IDO-derived 9-11mer peptide] | – | 30 min | –
35 | RNFLHSLESGP [IDO107, porcine IDO-derived 9-11mer peptide] | – | 42 min | T cell response (PBMCs): x
36 | RNIAIPYCKL [IDO108, porcine IDO-derived 9-11mer peptide] | – | - (t1/2 (hours) is listed for each of the stably binding peptides (t1/2 ≥ 0.5 h)) | –
37 | RNIAIPYCKLS [IDO109, porcine IDO-derived 9-11mer peptide] | – | - (t1/2 (hours) is listed for each of the stably binding peptides (t1/2 ≥ 0.5 h)) | –
38 | RNYHLQIVT [IDO110, porcine IDO-derived 9-11mer peptide] | – | - (t1/2 (hours) is listed for each of the stably binding peptides (t1/2 ≥ 0.5 h)) | Binder (t1/2 ≥ 0.5 h): half-life of peptide-SLA-2*04:01 complex (SLA-2*04:01): - (t1/2 (hours) is listed for each of the stably binding peptides (t1/2 ≥ 0.5 h))
39 | RNYHLQIVTK [IDO111, porcine IDO-derived 9-11mer peptide] | – | - (t1/2 (hours) is listed for each of the stably binding peptides (t1/2 ≥ 0.5 h)) | Binder (t1/2 ≥ 0.5 h): half-life of peptide-SLA-2*04:01 complex (SLA-2*04:01): - (t1/2 (hours) is listed for each of the stably binding peptides (t1/2 ≥ 0.5 h))
40 | RNYHLQIVTKY [IDO112, porcine IDO-derived 9-11mer peptide] | – | 30 min | Binder (t1/2 ≥ 0.5 h): half-life of peptide-SLA-2*04:01 complex (SLA-2*04:01): 216 min
41 | YDRLRPLSY [RhoC56, porcine RhoC-derived 9-11mer peptide] | – | - (t1/2 (hours) is listed for each of the stably binding peptides (t1/2 ≥ 0.5 h)) | –
42 | YDRLRPLSYPD [RhoC57, porcine RhoC-derived 9-11mer peptide] | – | - (t1/2 (hours) is listed for each of the stably binding peptides (t1/2 ≥ 0.5 h)) | –
